Measured values from patent US20020035061A1, “COMPOSITIONS AND METHODS FOR TREATING INFECTIONS USING CATIONIC PEPTIDES ALONE OR IN COMBINATION WITH ANTIBIOTICS” (priority 1996, published 2002).

Legend:
[1] = tested on: inherently resistant microorganisms; assay: microbe, parasite or virus in culture; format: cell-based; settings: S. aureus MRSA
[2] = tested on: microorganisms with acquired resistance; assay: microbe, parasite or virus in culture; format: cell-based; settings: for Peptide MIC: in µg/mL

KKWWRRALQGLKTAGPAIQSVLNK [MBI 21A2]
Peptide MIC + Amikacin [1]: 1 µg/mL
Peptide MIC + Piperacillin [1]: 64 µg/mL
Peptide MIC Alone ([1]; Amikacin section): 2 µg/mL
Peptide MIC Alone ([1]; Piperacillin section): >128 µg/mL
FIC ([1]; peptide + Amikacin): 0.56
FIC ([1]; peptide + Piperacillin): 0.25
Gentamicin MIC + Peptide ([2]; A. calcoaceticus AC001): 4 µg/mL
Peptide MIC + Gentamicin ([2]; A. calcoaceticus AC001): 8 µg/mL
Peptide MIC Alone ([2]; A. calcoaceticus AC001, Gentamicin section): 16 µg/mL
Peptide MIC + Piperacillin ([2]; E. coli 1): 2 µg/mL
Piperacillin MIC + Peptide ([2]; E. coli 1): 8 µg/mL
Peptide MIC Alone ([2]; E. coli 1, Piperacillin section): 4 µg/mL
Peptide MIC + Piperacillin ([2]; H. influenzae 1): 64 µg/mL
Piperacillin MIC + Peptide ([2]; H. influenzae 1): 4 µg/mL
Peptide MIC Alone ([2]; H. influenzae 1, Piperacillin section): >128 µg/mL
Peptide MIC + Piperacillin ([2]; H. influenzae 2): 64 µg/mL
Piperacillin MIC + Peptide ([2]; H. influenzae 2): 4 µg/mL
Peptide MIC Alone ([2]; H. influenzae 2, Piperacillin section): >128 µg/mL
Amikacin MIC + Peptide ([2]; P. aeruginosa PA022): 16 µg/mL
Gentamicin MIC + Peptide ([2]; P. aeruginosa PA022): 2 µg/mL
Peptide MIC + Amikacin ([2]; P. aeruginosa PA022): 2 µg/mL
Peptide MIC + Gentamicin ([2]; P. aeruginosa PA022): 4 µg/mL
Peptide MIC Alone ([2]; P. aeruginosa PA022, Amikacin section): 8 µg/mL
Peptide MIC Alone ([2]; P. aeruginosa PA022, Gentamicin section): 8 µg/mL
Ciprofloxacin MIC + Peptide ([2]; P. aeruginosa PA41): 1 µg/mL
Peptide MIC + Ciprofloxacin ([2]; P. aeruginosa PA41): 16 µg/mL
Peptide MIC Alone ([2]; P. aeruginosa PA41, Ciprofloxacin section): 64 µg/mL
Ciprofloxacin MIC + Peptide ([2]; P. aeruginosa PA77): 0.25 µg/mL
Peptide MIC + Ciprofloxacin ([2]; P. aeruginosa PA77): 32 µg/mL
Peptide MIC Alone ([2]; P. aeruginosa PA77, Ciprofloxacin section): 64 µg/mL
Peptide MIC ([2]; P. aeruginosa, combination with Ciprofloxacin): 16
Peptide MIC ([2]; S. aureus, combination with Ciprofloxacin): 4
Peptide MIC ([2]; S. aureus, combination with Mupirocin): 32
Peptide MIC + Piperacillin ([2]; S. maltophilia 3): 16 µg/mL
Piperacillin MIC + Peptide ([2]; S. maltophilia 3): 16 µg/mL
Peptide MIC Alone ([2]; S. maltophilia 3, Piperacillin section): 32 µg/mL
Peptide MIC + Piperacillin ([2]; S. maltophilia 11): 64 µg/mL
Piperacillin MIC + Peptide ([2]; S. maltophilia 11): 8 µg/mL
Peptide MIC Alone ([2]; S. maltophilia 11, Piperacillin section): 128 µg/mL
Gentamicin MIC + Peptide ([2]; S. maltophilia SMA020): 0.125 µg/mL
Peptide MIC + Gentamicin ([2]; S. maltophilia SMA020): 8 µg/mL
Peptide MIC Alone ([2]; S. maltophilia SMA020, Gentamicin section): 16 µg/mL
Gentamicin MIC + Peptide ([2]; S. maltophilia SMA021): 0.125 µg/mL
Peptide MIC + Gentamicin ([2]; S. maltophilia SMA021): 8 µg/mL
Peptide MIC Alone ([2]; S. maltophilia SMA021, Gentamicin section): 16 µg/mL
Peptide MIC + Piperacillin ([2]; S. marcescens 1): 4 µg/mL
Piperacillin MIC + Peptide ([2]; S. marcescens 1): 16 µg/mL
Peptide MIC Alone ([2]; S. marcescens 1, Piperacillin section): >128 µg/mL
FIC ([2]; peptide + Amikacin, P. aeruginosa PA022): 0.50
FIC ([2]; peptide + Ciprofloxacin, P. aeruginosa PA41): 0.50
FIC ([2]; peptide + Ciprofloxacin, P. aeruginosa PA77): 0.63
FIC ([2]; peptide + Gentamicin, A. calcoaceticus AC001): 1.00
FIC ([2]; peptide + Gentamicin, P. aeruginosa PA022): 0.56
FIC ([2]; peptide + Gentamicin, S. maltophilia SMA020): 0.50
FIC ([2]; peptide + Gentamicin, S. maltophilia SMA021): 0.50
FIC ([2]; peptide + Piperacillin, E. coli 1): 0.53
FIC ([2]; peptide + Piperacillin, H. influenzae 1): 0.31
FIC ([2]; peptide + Piperacillin, H. influenzae 2): 0.28
FIC ([2]; peptide + Piperacillin, S. maltophilia 3): 0.75
FIC ([2]; peptide + Piperacillin, S. maltophilia 11): 0.75
FIC ([2]; peptide + Piperacillin, S. marcescens 1): 0.27
